Test system: Nippostrongylus brasiliensis
Test: In-vitro experiments with adult Nippostrongylus brasiliensis: acetylcholine esterase activity in the incubation medium
Type: cell-based
Design: key: 0=no activity (<50% enzyme inhibition); 1=weak activity; 2=good activity; 3=full activity
Method: Test Method for In-Vitro Experiments with Nippostrongylus brasiliensis
Adult Nippostrongylus brasiliensis were isolated from the small intestine of female Wistar rats and transferred into 0.9% NaCl containing 20 μg/ml sisomycin and 2 μg/ml Canesten. The groups of worms (both sexes) were incubated in 1.0 ml of medium, which was also used for determining the acetylcholine esterase activity. The incubation and the enzyme assay were described in the paper by Rapson et al. (1987) Z. Parasitenkunde 73, 190-191. […] The controls only contained DMSO. The acetylcholine esterase activity in the incubation medium was determined in accordance with the above publication.
The efficacy was categorized by means of a scale 0-3, where 0=no activity (<50% enzyme inhibition); 1=weak activity; 2=good activity; 3=full activity

SMILES: COCC(=O)Nc1ccc(/N=C(\C)N(C)C)cc1 [Amidantel, amidantel]
- efficacy (scale 0-3, acetylcholine esterase inhibition) (Amidantel 10 ppm alone (PF1022A 0 ppm)): 1
- efficacy (scale 0-3, acetylcholine esterase inhibition) (Amidantel 50 ppm alone (PF1022A 0 ppm)): 1
- efficacy (scale 0-3, acetylcholine esterase inhibition) (Amidantel 100 ppm alone (PF1022A 0 ppm)): 1

SMILES: C/C(=N\c1ccc(N)cc1)N(C)C [Bay d 9216]
- efficacy (scale 0-3, acetylcholine esterase inhibition) (Bay d 9216 1 ppm alone (PF1022A 0 ppm)): 1
- efficacy (scale 0-3, acetylcholine esterase inhibition) (Bay d 9216 5 ppm alone (PF1022A 0 ppm)): 1
- efficacy (scale 0-3, acetylcholine esterase inhibition) (Bay d 9216 10 ppm alone (PF1022A 0 ppm)): 1

SMILES: CC(C)CC1C(=O)OC(Cc2ccccc2)C(=O)N(C)C(CC(C)C)C(=O)OC(C)C(=O)N(C)C(CC(C)C)C(=O)OC(Cc2ccccc2)C(=O)N(C)C(CC(C)C)C(=O)OC(C)C(=O)N1C (stereo not drawn) [PF1022A]
- efficacy (scale 0-3, acetylcholine esterase inhibition) (PF1022A 0.01 ppm alone (Amidantel 0 ppm)): 1
- efficacy (scale 0-3, acetylcholine esterase inhibition) (PF1022A 0.01 ppm alone (Bay d 9216 0 ppm)): 1
- efficacy (scale 0-3, acetylcholine esterase inhibition) (PF1022A 0.05 ppm alone (Amidantel 0 ppm)): 1
- efficacy (scale 0-3, acetylcholine esterase inhibition) (PF1022A 0.05 ppm alone (Bay d 9216 0 ppm)): 1
- efficacy (scale 0-3, acetylcholine esterase inhibition) (PF1022A 0.1 ppm alone (Amidantel 0 ppm)): 2
- efficacy (scale 0-3, acetylcholine esterase inhibition) (PF1022A 0.1 ppm alone (Bay d 9216 0 ppm)): 2

Reference: patent US20110201550A1, “COMBINATION OF AMIDINE DERIVATIVES WITH CYCLIC DEPSIPEPTIDES” (Bayer Animal Health GMBH, priority 2008, published 2011)
